Measured values from patent US11857653B2.

How the values were obtained:
[1] = pH study: change in pH of lesion forming solution after addition of calcium compounds; assay type: physicochemical; conditions: 8 mM Ca added to lesion forming solution (pH 5.0), stirred 30 minutes at 37 degrees C.
Protocol: Powders were added and allowed to stir for 30 minutes at 37 degrees C. before measuring the pH.

[2] = pH cycling study: remineralization of artificial lesions (SMH, EFU); design: species or system Bovine; conditions: five days, calcium compounds used together with 100 ppm F treatments
Protocol: A pH cycling study was performed. The study was developed to simulate the spike in acid production after three meals during the course of a day.
Bovine enamel specimens were polished and artificial lesions formed by immersion of the specimens in a lesion forming solution consisting of 0.1 M lactic acid and 0.2% Carbopol C907 which was 50% saturated with hydroxyapatite and adjusted to pH 5.0. The average specimen surface microhardness (SMH) was determined from four indentations on the surface of each specimen, using a Vickers hardness indenter at a load of 200 g for 15 seconds. […] Specimens were divided into subgroups of 18 specimens balanced by post-demineralization surface microhardness (SMH) values.
Remineralization efficacy was evaluated under two different cyclic treatment regimens. Both regimens consisted of three one-minute fluoride treatment periods (100 ppm, pH=6.5), and three one-hour acid challenges in the lesion forming solution, with calcium introduced during the acid challenges.
The difference between the two treatment regimens was the relative order of the fluoride treatments and the acid challenges. In Regimen I, shown in Table 1, the demineralization event (Demin: Lactic Acid Challenge) occurred first, followed by the remineralization event (Remin: Artificial Saliva Soak). In Regimen II, shown in Table 2, the order of events was reversed, and the remineralization event occurred first, followed by the demineralization event.
During the acid challenge periods (Demin: Lactic Acid Challenge), a 15 ml aliquot of the lesion forming solution was transferred to a treatment beaker containing six enamel specimens. Calcium compounds at equimolar calcium concentration, were introduced to the solution 20 minutes after the start of the acid challenge.
The pH cycling regimens were repeated for five consecutive days. […] As a negative control, the calcium sources, as well as the fluoride source, were replaced with water. Also, for comparison purposes, a study was performed with only the fluoride source.
After five days of treatment and pH cycling, remineralization efficacy was measured from change in surface microhardness (SMH) and enamel fluoride uptake (EFU). The surface microhardness was measured as described above, where the indentations were measured next to the baseline indentations. The fluoride content was determined by micro-drilling to a depth of 100 micron into each tooth. The enamel powder from the drill hole was collected, dissolved (20 microliter of HClO4, 40 microliter Citrate/EDTA Buffer and 40 microliter deionized (DI) water) and analyzed for fluoride by comparison to a similarly prepared standard curve.

| SMILES | ΔpH [1] | EFU, comparison between treatment groups (in words) ([2]; Regimen I) | SMH, comparison between treatment groups (in words) ([2]; Regimen I) | EFU, comparison between treatment groups (in words) ([2]; Regimen II) | SMH, comparison between treatment groups (in words) ([2]; Regimen II) |
| --- | --- | --- | --- | --- | --- |
| O=P([O-])([O-])[O-].O=P([O-])([O-])[O-].[Ca+2].[Ca+2].[Ca+2] [Alpha-Tricalcium Phosphate] | +0.33 | comparable to the EFU of the highly soluble calcium compound (Calcium Chloride Dihydrate) treated specimens | comparable to the SMH of the highly soluble calcium compound (Calcium Chloride Dihydrate) treated specimens | equivalent to the EFU of the specimens only treated with 100 ppm F | comparable to the SMH of the specimens only treated with 100 ppm F |
| O.O.[Ca+2].[Cl-].[Cl-] [Calcium Chloride Dihydrate, reference compound] | – | – | – | highest values of EFU | highest values of SMH |
